# Data published in patent US20070014727A1, “Contrast media for nuclear spin tomography with use of the overhauser effect” (priority 2005, published 2007).
# Experiments:
# Format in all cases: physicochemical
# [1] = EPR measurement of oxygen sensitivity (EPR line widening after flushing with oxygen); settings: for widening of the EPR line after the solution is flushed with oxygen: in toluene, reversible
# [2] = Electron spin relaxation times by pulsed spin-echo EPR (X-band) and CW EPR line widths (L-band) in liquid solution; settings: pulsed spin-echo EPR in X-band (9.5 GHz), CW EPR line widths in L-band (1.1 GHz)
# From the text: The substance N@C63(COOH)6 (III) according to the invention has long spin-relaxation times of the unpaired electron. It was possible to measure very long electronic relaxation times T1e≅150 μs and T2e≅22 μs in liquid solution, which are longer by at least one order of magnitude than that of the […], (see FIG. 4) with pulsed spin-echo EPR measurements in X-band (9.5 GHz EPR larmor frequency) and from CW EPR line widths in the L-band (1.1 GHz of EPR larmor frequency). From [ii] Table 3, page 8, in isotonic NaCl solution at 37° C.: “predeuterated trityl”: T1e≅13 μs, T2e≅8 μs; “deuterated hydroxy trityl”: T1e≅11 μs, T2e≅8 μs, “symmetrical trityl”: T1e≅9 μs, T2e≅9 μs.
# [3] = Relaxometric measurement of proton relaxivity; settings: aqueous solution, spin concentration 6 μm, 37° C., about 15 mT (600 kHz)
# Method: Substance (III) has a relaxivity r1≅47 mM^−1s^−1 (compared to the trityl derivatives with relaxivity values of between 0.14 mM^−1s^−1 and 0.44 mM^−1s^−1 [ii], and [iii]) in aqueous solution with a spin concentration of 6 μm at a solvent temperature of 37° C. This unexpectedly high value is present at a magnetic field strength of about 15 mT, which corresponds to a radiofrequency of 600 kHz and thus to the conditions of very low magnetic field strength that are necessary for OMRI.
Substance,oxygen-sensitivity [1],widening of the EPR line after the solution is flushed with oxygen [1],electronic relaxation time T1e [2] [μs],electronic relaxation time T2e [2] [μs],relaxivity r1 [3] [mM⁻¹ s⁻¹]
P@C60 [IX],elevated,20 ×,–,–,–
N@C63 (COONa)6 [III],–,–,~150,~22,~47
N@C60 [I],low,does not occur,–,–,–
